The nature of experiment [1]: Binding affinity to integrin in human WM-115 cells after 30 mins by immobilized vitronectin-based competitive cell adhesion assay.
The nature of experiment [2]: Cytotoxicity against human KBV1 cells by resazurin reduction assay. The class given is functional, cell-based. Particulars: KB-V1. Background: Alamar Blue is a resazurin reagent that responds to reducing activity.
The nature of experiment [3]: Cytotoxicity against human KB-3-1 cells by resazurin reduction assay. The class given is functional, cell-based.

Molecules are shown by their SMILES.

One may read the IC50 as the point on the concentration scale where inhibition reaches its midpoint. Regarding `CC(C)[C@@H]1NC(=O)[C@@H](Cc2ccccc2)NC(=O)[C@H](CC(=O)O)NC(=O)CNC(=O)[C@H](CCCN=C(N)N)NC1=O` [CYCLORGDFV], the half-inhibitory concentration (IC50) in experiment [1] turned out to be 500 nM.

As for `COc1ccc(C[C@H]2NC(=O)/C=C/C[C@@H]([C@H](C)[C@H]3O[C@@H]3c3ccccc3)OC(=O)[C@H](CC(C)C)OC(=O)[C@H](CCCn3cc(C(C)(C)O)nn3)CNC2=O)cc1Cl`, the 50% inhibitory concentration (IC50) was 411 nM in experiment [2] and 0.101 nM in experiment [3].

Turning to `COc1ccc(C[C@H]2NC(=O)/C=C/C[C@@H]([C@H](C)[C@H]3O[C@@H]3c3ccccc3)OC(=O)[C@H](CC(C)C)OC(=O)[C@H](CCN=[N+]=[N-])CNC2=O)cc1Cl`, the values for the IC50 in experiment [2] and in experiment [3] were 2.1 nM and 0.0216 nM, respectively.

Regarding `COc1ccc(C[C@H]2NC(=O)/C=C/C[C@@H]([C@H](C)[C@H]3O[C@@H]3c3ccccc3)OC(=O)[C@H](CC(C)C)OC(=O)[C@@H](CCCn3cc(C(C)(C)O)nn3)CNC2=O)cc1Cl`, the IC50 was determined as 3020 nM in experiment [2] and 0.312 nM in experiment [3].

For the molecule `C=CCOCCC[C@@H]1CNC(=O)[C@@H](Cc2ccc(OC)c(Cl)c2)NC(=O)/C=C/C[C@@H]([C@H](C)[C@H]2O[C@@H]2c2ccccc2)OC(=O)[C@H](CC(C)C)OC1=O`, the IC50 was determined as 26.6 nM in experiment [2] and 0.149 nM in experiment [3].

`C=CCOC(=O)C[C@@H]1CNC(=O)[C@@H](Cc2ccc(OC)c(Cl)c2)NC(=O)/C=C/C[C@@H]([C@H](C)[C@H]2O[C@@H]2c2ccccc2)OC(=O)[C@H](CC(C)C)OC1=O`: the 50% inhibitory concentration (IC50) came to 2.7 nM in experiment [2] and 0.0961 nM in experiment [3].

With `COc1ccc(C[C@H]2NC(=O)/C=C/C[C@@H]([C@H](C)[C@H]3O[C@@H]3c3ccccc3)OC(=O)[C@H](CC(C)C)OC(=O)[C@H](CCCCN=[N+]=[N-])CNC2=O)cc1Cl`, the results for the IC50 in experiment [2] and in experiment [3] were 23.5 nM and 0.249 nM, respectively.

With `COc1ccc(C[C@H]2NC(=O)/C=C/C[C@@H]([C@H](C)[C@H]3O[C@@H]3c3ccccc3)OC(=O)[C@H](CC(C)C)OC(=O)C(C)(C)CNC2=O)cc1Cl` [CRYPTOPHYCIN 52], the concentration for half-maximal inhibition (IC50) stood at 0.26 nM in experiment [2] and 0.0155 nM in experiment [3].

With `C=CCOC(=O)C[C@H]1CNC(=O)[C@@H](Cc2ccc(OC)c(Cl)c2)NC(=O)/C=C/C[C@@H]([C@H](C)[C@H]2O[C@@H]2c2ccccc2)OC(=O)[C@H](CC(C)C)OC1=O`, the values for the half-maximal inhibitory concentration (IC50) in experiment [2] and in experiment [3] were 6 nM and 0.0083 nM, respectively.

In the case of `COc1ccc(C[C@H]2NC(=O)/C=C/C[C@@H]([C@H](C)[C@H]3O[C@@H]3c3ccccc3)OC(=O)[C@H](CC(C)C)OC(=O)[C@@H](CCN=[N+]=[N-])CNC2=O)cc1Cl`, the IC50 came out at 14.1 nM in experiment [2] and 0.0546 nM in experiment [3].

`COc1ccc(C[C@H]2NC(=O)/C=C/C[C@@H]([C@H](C)[C@H]3O[C@@H]3c3ccccc3)OC(=O)[C@H](CC(C)C)OC(=O)[C@@H](CCCN=[N+]=[N-])CNC2=O)cc1Cl`: the IC50 in experiment [2] worked out at 114 nM; in experiment [3], 11.5 nM.

For `COc1ccc(C[C@H]2NC(=O)/C=C/C[C@@H]([C@H](C)[C@H]3O[C@@H]3c3ccccc3)OC(=O)[C@H](CC(C)C)OC(=O)[C@H](CCCN=[N+]=[N-])CNC2=O)cc1Cl`, the IC50 stood at 18.4 nM in experiment [2] and 0.112 nM in experiment [3].

As for `COc1ccc(C[C@H]2NC(=O)/C=C/C[C@@H]([C@H](C)[C@H]3O[C@@H]3c3ccccc3)OC(=O)[C@H](CC(C)C)OC(=O)[C@@H](CCCn3cc(C[C@@H]4NC(=O)[C@@H](Cc5ccccc5)NC(=O)[C@H](CC(=O)O)NC(=O)CNC(=O)[C@H](CCCNC(=N)N)NC4=O)nn3)CNC2=O)cc1Cl`, the half-inhibitory concentration (IC50) worked out at 1800 nM in experiment [2] and 55.8 nM in experiment [3].

For `C=CCOCCC[C@H]1CNC(=O)[C@@H](Cc2ccc(OC)c(Cl)c2)NC(=O)/C=C/C[C@@H]([C@H](C)[C@H]2O[C@@H]2c2ccccc2)OC(=O)[C@H](CC(C)C)OC1=O`, the IC50 came to 38 nM in experiment [2] and 0.0527 nM in experiment [3].

`C=CCOC(=O)CCC[C@@H]1CNC(=O)[C@@H](Cc2ccc(OC)c(Cl)c2)NC(=O)/C=C/C[C@@H]([C@H](C)[C@H]2O[C@@H]2c2ccccc2)OC(=O)[C@H](CC(C)C)OC1=O`: the IC50 in experiment [2] is 45.2 nM; in experiment [3], 0.433 nM.

The values above are taken from ChEMBL document CHEMBL2321811, “Conjugates of modified cryptophycins and RGD-peptides enter target cells by endocytosis” (J Med Chem, 2013).
